Assays:
P. aeruginosa = assay: Minimal inhibitory concentration toward P. aeruginosa; format: cell-based, Pseudomonas aeruginosa
Description: FIG. 15A presents a Graph 1500 illustrating the antimicrobial selectivity and efficacy of example therapeutic polymers and coacervate complexes against P. aeruginosa in accordance with various embodiments described herein. […] The tested efficacy is based on their respective minimal inhibitory concentrations (MICs) toward P. aeruginosa. […] The commercial standard antibiotic Polymyxin B sulfate (PolyB) and Complex X were also tested for selectivity and efficacy/toxicity for comparison. Complex X is used herein to refer to a coacervate complex formed with Polymer A in combination with PolyB (as opposed to Polymer A and the disclosed therapeutic polyguanidinium based Polymers). FIG. 15B provides a corresponding Table 1501 for Graph 1500. In addition to the MIC and HC50 values reflected in Graph 1500, Table 1501 also identifies the […] (SI) of the respective polymers and corresponding coacervate complexes. Repetitive description of like elements employed in respective embodiments is omitted for sake of brevity.

[1] = In vivo toxicity in mice (LD50)
Description: FIGS. 21A and 21B provides tables illustrating the in vivo toxicity and antimicrobial efficacy of coacervate complexes in accordance with various embodiments described herein. […] The data presented in both tables 2101 and 2102 reflect testing using a mouse model.
With reference to FIG. 21 and Table 2101 the in vivo toxicity of different antimicrobials was measured as a function of the lethal dose 50 (LD50) values (which is the amount of antimicrobial that kills 50% of the tested population). […] In fact, the LD50 level of Complex E is so high that is cannot be measured. […] This in-vivo toxicity data is further commensurate with the in vitro toxicity data and in vitro hemolysis data discussed above.

[2] = test system: THP-1 cells (a human monocytic cell line); assay: Biocompatibility/toxicity with THP-1 cells (cell viability); format: cell-based
Description: FIG. 17 presents a Graph 1700 illustrating the biocompatibility/toxicity of various therapeutic polymers and coacervate complexes with mammalian cells in accordance with various embodiments described herein. […] In accordance with the data reflected in Graph 1700, different dosages (e.g., from 2 ppm to 1000 ppm in μg/mL) of the respective polymers and coacervate complexes were incubated with the THP-1 cells for 24 hours at 37° C. The polymers tested include Polymer A, Polymer B, Polymer C, Polymer D, and Polymer E. The coacervates tested include Complex B, Complex C, Complex D, and Complex E. The percent cell viability detected at concentrations less than 63 ppm were substantially the same as those shown for 63 ppm, and thus are not depicted to minimize the complexity of the visualization.

Substance: Polymyxin B sulfate [PolyB]
- MIC toward P. aeruginosa (P. aeruginosa): 0.5 mg/L
- LD50 [1]: 5.4 mg/kg
- percent cell viability THP-1 ([2]; 1000 ppm, 24 hours at 37° C): below 20%
- cell viability THP-1 ([2]; about 250 ppm): 50%
- cell viability THP-1 ([2]; about 500 ppm): ~30%

Reference: patent publication US12599673B2, “Techniques for enhancing the selectivity and efficacy of antimicrobial and anticancer polymer agents” (International Business Machines Corporation, priority 2018, dated 2026)
